Results from BigSolDB 2.1.

Cl.N=C(N)N
solubility (mole fraction)
Settings	278.15 K	283.15 K	288.15 K	293.15 K	298.15 K	303.15 K	308.15 K	313.15 K	318.15 K	323.15 K
in 2-butoxyethanol	0.104	0.111	0.126	0.138	0.153	0.169	0.185	0.201	0.216	0.236
in 2-ethoxyethanol	0.252	0.263	0.275	0.284	0.296	0.308	0.321	0.334	0.349	0.362
in 2-methoxyethanol	0.293	0.302	0.312	0.323	0.333	0.345	0.355	0.368	0.381	0.394
in 2-propoxyethanol	0.158	0.172	0.185	0.2	0.216	0.232	0.247	0.263	0.28	0.298
in DMAc	0.265	0.283	0.302	0.321	0.34	0.358	0.376	0.394	0.415	0.434
in DMF	0.326	0.345	0.368	0.384	0.402	0.42	0.441	0.456	0.476	0.495
in NMP	0.116	0.128	0.142	0.154	0.17	0.185	0.201	0.216	0.236	0.253
in ethanol	0.0832	0.0916	0.1	0.108	0.117	0.128	0.139	0.152	0.163	0.172
in isopropanol	0.0552	0.0623	0.0699	0.0803	0.0886	0.0991	0.11	0.122	0.135	0.149
in methanol	0.156	0.169	0.179	0.191	0.202	0.214	0.227	0.239	0.253	0.265
in n-propanol	0.0373	0.0447	0.0493	0.0571	0.066	0.0733	0.083	0.0939	0.103	0.115
